Laboratory results: US7943770B2, “Fused quinoline derivative and use thereof” (Takeda Pharmaceutical Company Limited, priority 2004, dated 2011)
pIC50: −log10 of the molar value.

Target: T1, hNK2 receptor (Homo sapiens, UniProt P21452)
T1 construct: host or cells: CHO cells
T1 sequence (P21452 1-398): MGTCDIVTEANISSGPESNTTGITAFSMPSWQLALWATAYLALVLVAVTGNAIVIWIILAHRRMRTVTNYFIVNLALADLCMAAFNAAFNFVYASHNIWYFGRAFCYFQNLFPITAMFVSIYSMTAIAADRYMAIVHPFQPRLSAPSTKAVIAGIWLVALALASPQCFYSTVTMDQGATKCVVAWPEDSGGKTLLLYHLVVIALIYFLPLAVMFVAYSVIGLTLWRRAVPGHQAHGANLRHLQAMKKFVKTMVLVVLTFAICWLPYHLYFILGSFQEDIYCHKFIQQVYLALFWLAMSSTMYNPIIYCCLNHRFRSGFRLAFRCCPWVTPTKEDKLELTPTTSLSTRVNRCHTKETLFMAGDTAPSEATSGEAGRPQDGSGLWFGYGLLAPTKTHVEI
Test: Radio-ligand ([125I]-NKA) receptor binding inhibitory activity using membrane fraction of hNK2 receptor-expressing CHO cell
Conditions: membrane fraction of hNK2 receptor-expressing CHO cells, 25° C., 30 min
How it was run: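 Inhibition of [125I]-NKA binding ([…] solution added) measured after 30 min at 25 °C using hNK2-CHO membrane fraction (20 μg/mL suspension) in pH 7.4 Tris buffer containing MnCl2, BSA and protease inhibitors. Filter-bound counts read; activity calculated as fraction of specific binding, non-specific defined with unlabeled NKA.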

Row | pIC50 | Structure (SMILES)
1 | > 9.00 | O=C(Nc1ccccc1)N[C@@H]1CCCC[C@@H]1C(=O)N1CC[C@@H]2[C@H](c3ncc[nH]3)Nc3ccccc3[C@@H]21 [Example 293, N-((1R,25)-2-{[(3aR,4R,9bR)-4-(1H-Imidazol-2-yl)-2,3,3a,4,5,9b-hexahydro-1H-pyrrolo[3,2-c]quinolin-1-yl]carbonyl}cyclohexyl)-N′-phenylurea]
2 | > 9.00 | O=C(N[C@@H]1CCCC[C@@H]1C(=O)N1CC[C@@H]2[C@H](c3ncc[nH]3)Nc3ccccc3[C@@H]21)c1ccc(C(F)(F)F)cc1 [Example 296, N-((1R,2S)-2-{[(3aR,4R,9bR)-4-(1H-Imidazol-2-yl)-2,3,3a,4,5,9b-hexahydro-1H-pyrrolo[3,2-c]quinolin-1-yl]carbonyl}cyclohexyl)-4-(trifluoromethyl)benzamide]
3 | > 9.00 | O=C(/C=C/c1ccc(F)cc1)N[C@@H]1CCCC[C@@H]1C(=O)N1CC[C@@H]2[C@H](c3ncc[nH]3)Nc3ccccc3[C@@H]21 [Example 297, (2E)-3-(4-Fluorophenyl)-N-((1R,2S)-2-{[(3aR,4R,9bR)-4-(1H-imidazol-2-yl)-2,3,3a,4,5,9b-hexahydro-1H-pyrrolo[3,2-c]quinolin-1-yl]carbonyl}cyclohexyl)acrylamide]
4 | > 9.00 | O=C(Nc1ccc(F)cc1)N[C@@H]1CCCC[C@@H]1C(=O)N1CC[C@@H]2[C@H](c3ncc[nH]3)Nc3ccccc3[C@@H]21 [Example 298, N-(4-Fluorophenyl)-N′-((1R,2S)-2-{[(3aR,4R,9bR)-4-(1H-imidazol-2-yl)-2,3,3a,4,5,9b-hexahydro-1H-pyrrolo[3,2-c]quinolin-1-yl]carbonyl}cyclohexyl)urea]
5 | > 9.00 | O=C(N[C@@H]1CCCC[C@@H]1C(=O)N1CC[C@@H]2[C@H](c3ncc[nH]3)Nc3ccccc3[C@@H]21)c1ccc(F)c(Cl)c1 [Example 301, 3-Chloro-4-fluoro-N-((1R,2S)-2-{[(3aR,4R,9bR)-4-(1H-imidazol-2-yl)-2,3,3a,4,5,9b-hexahydro-1H-pyrrolo[3,2-c]quinolin-1-yl]carbonyl}cyclohexyl)benzamide]
6 | > 9.00 | O=C(N[C@@H]1CCCC[C@@H]1C(=O)N1CC[C@@H]2[C@H](c3ncc[nH]3)Nc3ccccc3[C@@H]21)c1ccccc1F [Example 302, 2-Fluoro-N-((1R,2S)-2-{[(3aR,4R,9bR)-4-(1H-imidazol-2-yl)-2,3,3a,4,5,9b-hexahydro-1H-pyrrolo[3,2-c]quinolin-1-yl]carbonyl}cyclohexyl)benzamide]
7 | > 9.00 | O=C(N[C@@H]1CCCC[C@@H]1C(=O)N1CC[C@@H]2[C@H](c3ncc[nH]3)Nc3ccccc3[C@@H]21)c1ccc(Cl)cc1 [Example 303, 4-Chloro-N-((1R,2S)-2-{[(3aR,4R,9bR)-4-(1H-imidazol-2-yl)-2,3,3a,4,5,9b-hexahydro-1H-pyrrolo[3,2-c]quinolin-1-yl]carbonyl}cyclohexyl)benzamide]
8 | > 9.00 | N#Cc1ccc(C(=O)N[C@@H]2CCCC[C@@H]2C(=O)N2CC[C@@H]3[C@H](c4ncc[nH]4)Nc4ccccc4[C@@H]32)cc1 [Example 304, 4-cyano-N-((1R,2S)-2-{[(3aR,4R,9bR)-4-(1H-imidazol-2-yl)-2,3,3a,4,5,9b-hexahydro-1H-pyrrolo[3,2-c]quinolin-1-yl]carbonyl}cyclohexyl)benzamide]
9 | > 9.00 | O=C(N[C@@H]1CCCC[C@@H]1C(=O)N1CC[C@@H]2[C@H](c3ncc[nH]3)Nc3ccccc3[C@@H]21)c1cccc(C(F)(F)F)c1 [Example 305, N-((1R,2S)-2-{[(3aR,4R,9bR)-4-(1H-Imidazol-2-yl)-2,3,3a,4,5,9b-hexahydro-1H-pyrrolo[3,2-c]quinolin-1-yl]carbonyl}cyclohexyl)-3-(trifluoromethyl)benzamide]

Second part, the molecule before the results:

Row | Structure (SMILES) | pIC50
10 | COC[C@@H]1Nc2ccccc2[C@H]2[C@@H]1CCN2C(=O)[C@H]1CCCC[C@H]1NC(=O)c1ccc2[nH]c(C(F)(F)F)nc2c1 [Example 282, N-((1R,2S)-2-{[(3aR,4R,9bR)-4-(Methoxymethyl)-2,3,3a,4,5,9b-hexahydro-1H-pyrrolo[3,2-c]quinolin-1-yl]carbonyl}cyclohexyl)-2-(trifluoromethyl)-1H-benzimidazole-5-carboxamide] | > 8.00
11 | COC[C@@H]1Nc2ccccc2[C@H]2[C@@H]1CCN2C(=O)[C@H]1CCCC[C@H]1NC(=O)Nc1ccc(C#N)c(C)c1 [Example 283, N-(4-Cyano-3-methylphenyl)-N′-((1R,2S)-2-{[(3aR,4R,9bR)-4-(methoxymethyl)-2,3,3a,4,5,9b-hexahydro-1H-pyrrolo[3,2-c]quinolin-1-yl]carbonyl}cyclohexyl)urea] | > 9.00
12 | COC[C@@H]1Nc2ccccc2[C@H]2[C@@H]1CCN2C(=O)[C@H]1CCCC[C@H]1NC(=O)Nc1ccc(-n2cccn2)cc1 [Example 284, N-((1R,2S)-2-{[(3aR,4R,9bR)-4-(methoxymethyl)-2,3,3a,4,5,9b-hexahydro-1H-pyrrolo[3,2-c]quinolin-1-yl]carbonyl}cyclohexyl)-N′-[4-(1H-pyrazol-1-yl)phenyl]urea] | > 9.00
13 | COC[C@@H]1Nc2ccccc2[C@H]2[C@@H]1CCN2C(=O)[C@H]1CCCC[C@H]1NC(=O)Nc1ccc(OC)c(C#N)c1 [Example 285, N-(3-Cyano-4-methoxyphenyl)-N′-((1R,2S)-2-{[(3aR,4R,9bR)-4-(methoxymethyl)-2,3,3a,4,5,9b-hexahydro-1H-pyrrolo[3,2-c]quinolin-1-yl]carbonyl}cyclohexyl)urea] | > 9.00
14 | COC[C@@H]1Nc2ccccc2[C@H]2[C@@H]1CCN2C(=O)[C@H]1CCCC[C@H]1NC(=O)c1ccc(N2CCOCC2)nc1 [Example 286, N-((1R,2S)-2-{[(3aR,4R,9bR)-4-(Methoxymethyl)-2,3,3a,4,5,9b-hexahydro-1H-pyrrolo[3,2-c]quinolin-1-yl]carbonyl}cyclohexyl)-6-morpholin-4-ylnicotinamide] | > 8.00
15 | COC[C@@H]1Nc2ccccc2[C@H]2[C@@H]1CCN2C(=O)[C@H]1CCCC[C@H]1NC(=O)c1ccc(-n2ccnc2C)nc1 [Example 287, N-((1R,2S)-2-{[(3aR,4R,9bR)-4-(Methoxymethyl)-2,3,3a,4,5,9b-hexahydro-1H-pyrrolo[3,2-c]quinolin-1-yl]carbonyl}cyclohexyl)-6-(2-methyl-1H-imidazol-1-yl)nicotinamide] | > 8.00
16 | COC[C@@H]1Nc2ccccc2[C@H]2[C@@H]1CCN2C(=O)[C@H]1CCCC[C@H]1NC(=O)c1ccc(-n2cccn2)nc1 [Example 288, N-((1R,2S)-2-{[(3aR,4R,9bR)-4-(Methoxymethyl)-2,3,3a,4,5,9b-hexahydro-1H-pyrrolo[3,2-c]quinolin-1-yl]carbonyl}cyclohexyl)-6-(1H-pyrazol-1-yl)nicotinamide] | > 9.00
17 | COC[C@@H]1Nc2ccccc2[C@H]2[C@@H]1CCN2C(=O)[C@H]1CCCC[C@H]1NC(=O)Nc1ccc(N2CCOCC2)nc1 [Example 289, N-((1R,2S)-2-{[(3aR,4R,9bR)-4-(Methoxymethyl)-2,3,3a,4,5,9b-hexahydro-1H-pyrrolo[3,2-c]quinolin-1-yl]carbonyl}cyclohexyl)-N′-(6-morpholin-4-ylpyridin-3-yl)urea] | > 8.00
18 | COC[C@@H]1Nc2ccccc2[C@H]2[C@@H]1CCN2C(=O)[C@H]1CCCC[C@H]1NC(=O)c1ccc(-c2cnco2)cc1 [Example 290, N-((1R,2S)-2-{[(3aR,4R,9bR)-4-(Methoxymethyl)-2,3,3a,4,5,9b-hexahydro-1H-pyrrolo[3,2-c]quinolin-1-yl]carbonyl}cyclohexyl)-4-(1,3-oxazol-5-yl)benzamide] | > 9.00
19 | COC[C@@H]1Nc2ccccc2[C@H]2[C@@H]1CCN2C(=O)[C@H]1CCCC[C@H]1NC(=O)c1ccc(N2CCSCC2)cc1 [Example 291, N-((1R,2S)-2-{[(3aR,4R,9bR)-4-(Methoxymethyl)-2,3,3a,4,5,9b-hexahydro-1H-pyrrolo[3,2-c]quinolin-1-yl]carbonyl}cyclohexyl)-4-thiomorpholin-4-ylbenzamide] | > 9.00
20 | O=C(/C=C/c1ccc(C(F)(F)F)cc1)N[C@@H]1CCCC[C@@H]1C(=O)N1CC[C@@H]2[C@H](c3ncc[nH]3)Nc3ccccc3[C@@H]21 [Example 294, (2E)-N-((1R,2S)-2-{[(3aR,4R,9bR)-4-(1H-Imidazol-2-yl)-2,3,3a,4,5,9b-hexahydro-1H-pyrrolo[3,2-c]quinolin-1-yl]carbonyl}cyclohexyl)-3-[4-(trifluoromethyl)phenyl]acrylamide] | > 9.00
21 | CCNC(=O)N[C@@H]1CCCC[C@@H]1C(=O)N1CC[C@@H]2[C@H](c3ncc[nH]3)Nc3ccccc3[C@@H]21 [Example 295, N-Ethyl-N′-((1R,2S)-2-{[(3aR,4R,9bR)-4-(1H-imidazol-2-yl)-2,3,3a,4,5,9b-hexahydro-1H-pyrrolo[3,2-c]quinolin-1-yl]carbonyl}cyclohexyl)urea] | > 8.00
22 | CCCCNC(=O)N[C@@H]1CCCC[C@@H]1C(=O)N1CC[C@@H]2[C@H](c3ncc[nH]3)Nc3ccccc3[C@@H]21 [Example 299, N-Butyl-N′-((1R,2S)-2-{[(3aR,4R,9bR)-4-(1H-imidazol-2-yl)-2,3,3a,4,5,9b-hexahydro-1H-pyrrolo[3,2-c]quinolin-1-yl]carbonyl}cyclohexyl)urea] | > 9.00
23 | O=C(/C=C/c1cccs1)N[C@@H]1CCCC[C@@H]1C(=O)N1CC[C@@H]2[C@H](c3ncc[nH]3)Nc3ccccc3[C@@H]21 [Example 300, (2E)-N-((1R,2S)-2-{[(3aR,4R,9bR)-4-(1H-Imidazol-2-yl)-2,3,3a,4,5,9b-hexahydro-1H-pyrrolo[3,2-c]quinolin-1-yl]carbonyl}cyclohexyl)-3-thien-2-ylacrylamide] | > 9.00
